Measurements reported in patent US12358875B2, “N-(phenyl)-indole-3-sulfonamide derivatives and related compounds as GPR17 modulators for treating CNS disorders such as multiple sclerosis” (UCB Pharma GMBH, priority 2019, dated 2025).

Key:
GPR17 [1] = target: T1, GPR17 (Homo sapiens, UniProt Q13304); conditions: WO 2005/103291; cited from earlier work
Target sequence in this assay (Q13304 whole entry, species assumed): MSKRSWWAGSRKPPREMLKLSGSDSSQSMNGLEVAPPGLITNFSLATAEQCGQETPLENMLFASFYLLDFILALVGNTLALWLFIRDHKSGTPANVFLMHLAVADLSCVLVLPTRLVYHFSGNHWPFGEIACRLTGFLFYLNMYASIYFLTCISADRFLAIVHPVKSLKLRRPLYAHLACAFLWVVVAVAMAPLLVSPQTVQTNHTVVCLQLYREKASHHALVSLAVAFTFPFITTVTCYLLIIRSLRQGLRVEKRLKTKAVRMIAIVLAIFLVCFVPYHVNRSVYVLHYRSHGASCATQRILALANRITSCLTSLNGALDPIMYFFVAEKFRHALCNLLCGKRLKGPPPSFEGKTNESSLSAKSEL

GPR17 [2] = target: T1, GPR17; assay: Calcium mobilization functional assay (Ca2+ assay), inhibition of MDL29,951 response in CHO hGPR17; assay type: cell-based; design: host or cells: Flp-In T-REx CHO; conditions: CHO hGPR17, 50 nM MDL29,951 agonist; read-out: Ca^2+ assay pIC50 (converted)
Protocol: (§1) Flp-In T-REx CHO cells stably expressing human GPR17 receptor (CHO hGPR17) from Evi Kostenis' lab (Bonn University, Germany) were cultured at 37° C. in a humidified atmosphere of 5% CO2. Cells were grown in DMEM with Nutrient Mixture F-12 supplemented with hygromycin B (500 μg/ml) and blasticidin (30 μg/ml). Expression from the Flp-In locus was induced by treatment with doxycycline (1 μg/ml) for 16-20 h prior assays.
GPR17 is a G-protein coupled receptor. GPR17 activation triggers Gq-type G-protein signaling resulting in endoplasmic reticulum calcium (Ca^2+) stores release in cytosol which can be measured using Calcium 5 dye, a fluorescent indicator dye of cytosolic Ca^2+ levels. The compounds of the present invention were assessed either in the Ca^2+ assay or in the GPR17 cAMP assay, described further below.
CHO hGPR17 were defrosted and seeded at a density of 20,000 cells per well into black 384-well plates with clear bottom. Cells were incubated overnight at 37° C. in a humidified atmosphere of 5% CO2. […] Fluorescent signal relative to cytosolic Ca^2+ concentration was recorded over time at room temperature in FLIPR Tetra reader. […] Inhibitory effects of varying concentrations test compounds were measured and resulting pIC50s were determined. […]
Target sequence in this assay (Q13304 29-367 limits assumed): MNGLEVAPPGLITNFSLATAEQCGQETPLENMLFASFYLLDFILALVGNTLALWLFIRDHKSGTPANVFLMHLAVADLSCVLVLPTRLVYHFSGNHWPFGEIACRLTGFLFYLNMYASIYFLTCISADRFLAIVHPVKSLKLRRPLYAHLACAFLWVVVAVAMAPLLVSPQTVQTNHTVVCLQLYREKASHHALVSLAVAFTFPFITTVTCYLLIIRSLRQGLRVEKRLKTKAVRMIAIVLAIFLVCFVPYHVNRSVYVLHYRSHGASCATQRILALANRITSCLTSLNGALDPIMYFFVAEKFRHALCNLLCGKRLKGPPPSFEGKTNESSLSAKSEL

GPR17 [3] = target: T1, GPR17; assay: cAMP accumulation functional assay (HTRF), Schild analysis against MDL29,951 in CHO hGPR17; assay type: cell-based; design: host or cells: Flp-In T-REx CHO; conditions: CHO hGPR17, Schild analysis vs MDL29,951, 5 μM forskolin; read-out: cAMP assay pA2 (converted)
Protocol: as §1
Target sequence in this assay (Q13304 29-367 limits assumed): as above
GPR17 activation can also recruit Gi-type G-protein signaling, resulting in a decrease of intracellular cyclic adenosine monophosphate (cAMP). Intracellular cAMP changes can be measured using the HTRF cAMP dynamic assay kit from CisBio (Codolet, France). Using homogenous time-resolved fluorescence technology (HTRF), the assay is based on competition between native cAMP produced by cells and cAMP labelled with the dye d2. The tracer binding was determined by an anti-cAMP antibody labeled with cryptate.
CHO hGPR17 were detached with PBS containing EDTA and dispatched in black 384-well plates with 5,000 cells per well. Cells were first incubated for 30 minutes at room temperature in HBSS Hepes (pH 7.4) containing vehicle or varying concentrations of test GPR17 antagonist/inverse agonist compounds. Then, a dose response curve of MDL29,951 GPR17 agonist (typically from 10^−5M to 10^−10M) was added on vehicle and on each test GPR17 antagonist/inverse agonist compound concentration in a final volume of 20 μL HBSS Hepes buffer (pH 7.4) containing 1% DMSO, 5 μM forskolin and 0.1 mM IBMX. After 60 minutes incubation at room temperature, the reaction is terminated and the cells lysed by adding the d2 detection reagent and the cryptate reagent in 10 μL lysis buffer each according to manufacturer's instructions. After 60 minutes incubation, changes in cAMP concentrations are measured according to manufacturer's instructions using an Envision plate reader with laser excitation. All incubations were performed in duplicate. Data was analyzed using GraphPad Prism software using the 4-parameter logistic equation to measure MDL29,951 pEC50s in absence and presence of GPR17 antagonist/inverse agonist test compounds. Dose ratio (DR) were plotted against antagonist concentrations and Schild analysis provided estimated affinity pA2 of GPR17 antagonist/inverse agonist test compounds.
The activities of the Example compounds tested are depicted in the table below. The activity ranges A, B and C refer to pA2 values in the cAMP assay as follows: “A”: pA2 6.5≤x<7.5, “B”: pA2 7.5≤x<8.5, “C”: 8.5≤pA2.

Compound: NCc1[nH]cc(CCC(=O)O)c1CC(=O)O [PBG, porphobilinogen]
- amounts needed in the assays (GPR17 activation) (GPR17 [1]): mM range

Compound: NCC(=O)CCC(=O)O [Example 5-ALA, 5 amino levulinic acid]
- amounts needed in the assays (GPR17 activation) (GPR17 [1]): three digit micromolar range

Compound: COc1nc(NS(=O)(=O)c2cn(C)c3cc(Cl)ccc23)c(F)cc1Cl [Example I-2, 6-chloro-N-(5-chloro-3-fluoro-6-methoxypyridin-2-yl)-1-methylindole-3-sulfonamide]
- IC50 (GPR17 [2]): 31.6 to 316 nM

Compound: Cn1cc(S(=O)(=O)Nc2ccc(C#N)cc2F)c2ccc(Cl)cc21 [Example I-1, 6-chloro-N-(4-cyano-2-fluorophenyl)-1-methylindole-3-sulfonamide]
- IC50 (GPR17 [2]): 31.6 to 316 nM

Compound: COc1nc(Cl)c(F)cc1NS(=O)(=O)c1cn(CC(O)CO)c2cc(Cl)ccc12 (stereo not drawn) [Example I-34, 6-chloro-N-(6-chloro-5-fluoro-2-methoxypyridin-3-yl)-1-(2,3-dihydroxypropyl)indole-3-sulfonamide]
- Kb (GPR17 [3]): 3.16 to 31.6 nM

Compound: CCn1cc(S(=O)(=O)Nc2cc(F)c(OC(F)F)cc2F)c2ccc(Cl)cc21 [Example I-23, 6-chloro-N-[4-(difluoromethoxy)-2,5-difluorophenyl]-1-ethylindole-3-sulfonamide]
- Kb (GPR17 [3]): 31.6 to 316 nM
